Like-named read-outs stand apart in the source and are kept apart here.
Assays:
[1] = biological target: T1, human recombinant A1 receptors (Homo sapiens, UniProt P30542); experiment: Adenosine 1 receptor subtype competition radioligand binding assay; conditions: 1 h, [3H]-DPCPX, CHO-K1 membranes, read-out: Binding human A1, % @ 1 μM (column headed Ki (nM))
T1 construct: host or cells: CHO-K1
T1 sequence (P30542 1-326): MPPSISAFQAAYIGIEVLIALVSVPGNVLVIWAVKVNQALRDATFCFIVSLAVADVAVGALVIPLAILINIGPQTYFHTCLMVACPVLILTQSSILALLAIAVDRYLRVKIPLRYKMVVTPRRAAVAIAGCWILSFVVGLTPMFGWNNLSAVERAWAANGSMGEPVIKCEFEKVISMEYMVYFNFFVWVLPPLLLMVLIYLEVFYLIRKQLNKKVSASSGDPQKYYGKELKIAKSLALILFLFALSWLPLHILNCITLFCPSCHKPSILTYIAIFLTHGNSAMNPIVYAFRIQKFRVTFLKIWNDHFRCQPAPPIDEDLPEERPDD
Protocol: Adenosine I Receptor Subtype Competition Radioligand Binding Assay
CHO-K1 cells expressing human recombinant A1 receptors were purchased from Euroscreen (Belgium). For membrane preparation, cells were collected from tissue culture plates using a cell scraper, resuspended in 10-15 ml of homogenization buffer (Tris-HCl 15 mM pH 7.5, MgCl2 2 mM, EDTA 0.3 mM, EGTA 1 mM), homogenized, and centrifuged at 40.000 g for 25 minutes. The resulting pellet was resuspended in the same buffer and centrifuged again for 25 minutes. Finally, the pellet was resuspended in 500 μl of storage buffer (Tris-HCl 7.5 mM pH 7.5, MgCl2 12.5 mM, EDTA 0.3 mM, EGTA 1 mM, sucrose 250 mM) where the total protein content was determined.
Competition assays were carried out incubating 15 μg of A1-membrane preparations, 2 nM [^3H]-DPCPX (Amersham) as radioligand and 10 μM of unlabeled DPCPX ligand, in a total volume of 100 μl of buffer (Hepes 20 mM pH 7.4, NaCl 100 mM, MgCl2 10 mM, 2 U/ml adenosin deaminase) for 1 h at 25° C. Samples were filtered and washed 4 times with 250 μl of buffer (Hepes 20 mM pH 7.4, NaCl 100 mM, MgCl2 10 mM) using plates (Millipore MAFCN0B50) preincubated for 15 min. in 250 μl of the same buffer. Samples were counted using 30 μl of LSC Universol (ICN) in a Wallac 1450 Microbeta counter. Non specific binding was tested using 10 μM R-PIA.

[2] = biological target: T2, human recombinant A2A receptor (Homo sapiens, UniProt P29274); experiment: Adenosine 2A receptor subtype competition radioligand binding assay; conditions: [3H]-ZM241385, Hela cell membranes
T2 construct: expressed in transfected cells; host or cells: HeLa (stably transfected)
Protocol: Adenosine 2A Receptor Subtype Competition Radioligand Binding Assay
(§1) Membranes were prepared from Hela cells stably transfected with the human recombinant A2A receptor. For membrane preparation, cells were collected from tissue culture plates using a cell scraper, resuspended in 10-15 ml homogenization buffer (Tris-HCl 5 mM, EDTA 2 mM), homogenized, and centrifuged at 1.000 g. for 10 min. at 4° C. The supernatant was then recovered and centrifuged at 50.000 g for 1 h. at 4° C. Finally, the pellet was resuspended in 100-500 μl storage buffer (Tris-HCl 50 mM pH 7.4) where the total protein content was determined.
Competition assays were carried out incubating 5 μg of A2A-membranes, 3 nM [^3H]-ZM241385 (Tocris) as radioligand and 50 μM of unlabeled ZM241385 ligand, in a total volume of 100 μl of buffer (TrisHCl 50 μM pH 7.4, EDTA 1 mM, MgCl2 10 mM, 2 U/ml adenosin deaminase) for 30 minutes at 25° C. Samples were then filtered and washed 4 times with 250 μl of buffer (TrisHCl 50 μM pH 7.4, EDTA 1 mM, MgCl2 10 mM) using plates (Millipore MAFCN0B50) preincubated for 15 min. in 250 μl of the same buffer. Samples were counted using 30 μl of LSC Universol (ICN) in a Wallac 1450 Microbeta counter. Non specific binding was tested using 50 μM NECA.

[3] = biological target: T3, human recombinant A3 receptor (Homo sapiens, UniProt P0DMS8); experiment: Adenosine 3 receptor subtype competition radioligand binding assay
T3 construct: expressed in transfected cells; host or cells: HeLa (stably transfected)
T3 sequence (P0DMS8 1-318): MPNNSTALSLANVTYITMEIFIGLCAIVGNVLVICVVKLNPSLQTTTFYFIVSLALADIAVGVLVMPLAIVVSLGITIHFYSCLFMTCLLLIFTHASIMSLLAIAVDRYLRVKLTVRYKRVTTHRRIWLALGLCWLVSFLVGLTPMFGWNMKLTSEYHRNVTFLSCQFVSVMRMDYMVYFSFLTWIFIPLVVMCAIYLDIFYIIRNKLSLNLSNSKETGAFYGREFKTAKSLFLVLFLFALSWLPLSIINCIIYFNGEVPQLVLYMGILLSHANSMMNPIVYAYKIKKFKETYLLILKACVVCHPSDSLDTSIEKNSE
Protocol: Adenosine 3 Receptor Subtype Competition Radioligand Binding Assay
as §1, with “A3” for “A2A”, “ml of” for “ml”, “μl of” for “μl”
Competition assays were carried out incubating 100 μg of A3-membranes, 30 nM [^3H]-NECA (Amersham) as radioligand and 50 μM of unlabeled NECA ligand, in a total volume of 100 μl of buffer (Tris-HCl 50 mM pH 7.4, MgCl2 5 mM, EDTA 1 mM, 2 U/ml adenosine deaminase) for 3 hours at 25° C. Samples were filtered 4 times with 250 μl of buffer (Tris-HCl 50 mM pH 7.4) using plates (Millipore MAFBN0B50) preincubated for 15 min. in 250 μl of the same buffer. Samples were counted using 30 μl of LSC Universol (ICN) in a Wallac 1450 Microbeta counter. Non specific binding was tested using 100 μM of R-PIA.

[4] = [3H]-NECA, Hela cell membranes, read-out: Binding human A3 Ki

T2 sequence (P29274 whole entry): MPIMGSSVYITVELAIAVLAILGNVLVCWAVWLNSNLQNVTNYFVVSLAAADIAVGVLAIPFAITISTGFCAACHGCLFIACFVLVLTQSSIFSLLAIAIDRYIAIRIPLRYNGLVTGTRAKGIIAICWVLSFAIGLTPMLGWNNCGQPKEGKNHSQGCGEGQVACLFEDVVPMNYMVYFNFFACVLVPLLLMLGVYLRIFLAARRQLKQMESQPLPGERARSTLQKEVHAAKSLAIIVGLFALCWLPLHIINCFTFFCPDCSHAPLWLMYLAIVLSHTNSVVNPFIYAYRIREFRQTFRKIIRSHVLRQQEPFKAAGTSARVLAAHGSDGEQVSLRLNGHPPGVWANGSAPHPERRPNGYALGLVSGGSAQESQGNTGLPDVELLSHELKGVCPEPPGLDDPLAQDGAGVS

Row | SMILES | inhibition at 1 µM [1] [%] | Ki [2] [nM] | Ki [3, 4] [nM] | Binding human A2A, % @ 1 μM (column headed Ki (nM)) [2] [% @ 1 μM] | Ki [3] [nM]
1 | c1cncc(Nc2ncc(-c3ccncn3)c(-c3ccco3)n2)c1 [Example 1, 4′-(2-Furyl)-N-pyridin-3-yl-4,5′-bipyrimidin-2′-amine] | 14 | 2540 | 1100 | – | –
2 | COc1ccc(Nc2ncc(-c3ccncn3)c(-c3ccco3)n2)cn1 [Example 2, 4′-(2-Furyl)-N-(6-methoxypyridin-3-yl)-4,5′-bipyrimidin-2′-amine] | 5 | – | – | 14 | 4320
3 | Fc1ccc(Nc2ncc(-c3ccncn3)c(-c3ccco3)n2)cn1 [Example 4, N-(6-Fluoropyridin-3-yl)-4′-(2-furyl)-4,5′-bipyrimidin-2′-amine] | 30 | – | 1690 | 21 | –
4 | c1cncc(Nc2ncc(-c3ccncn3)c(-c3cccs3)n2)c1 [Example 6, N-Pyridin-3-yl-4′-thien-2-yl-4,5′-bipyrimidin-2′-amine] | 31 | 620 | 310 | – | –
5 | c1cncc(Nc2ncc(-c3ccnnc3)c(-c3ccco3)n2)c1 [Example 11, 4-(2-Furyl)-5-pyridazin-4-yl-N-pyridin-3-ylpyrimidin-2-amine] | 23 | – | 407 | 17 | –
6 | [O-][n+]1cccc(Nc2ncc(-c3ccncn3)c(-c3ccco3)n2)c1 [Example 12, 4′-(2-Furyl)-N-(1-oxidopyridin-3-yl)-4,5′-bipyrimidin-2′-amine] | 4 | – | 846 | 7 | –
7 | c1coc(-c2nc(Nc3cncnc3)ncc2-c2ccncn2)c1 [Example 13, 4′-(2-Furyl)-N-pyrimidin-5-yl-4,5′-bipyrimidin-2′-amine] | 3 | – | 1440 | 15 | –
8 | O=c1ccc(Nc2ncc(-c3ccncn3)c(-c3ccco3)n2)c[nH]1 [Example 21, 5-{[4′-(2-Furyl)-4,5′-bipyrimidin-2′-yl]amino}pyridin-2(1H)-one] | 0 | – | 2790 | 0 | –

Reference: patent US20070265273A1, “Pyrimidin-2-Amine Derivatives and Their Use as A2b Adenosine Receptor Antagonists” (priority 2003, published 2007)
